In PMC12298883, “Discovery of Cyclopentane-Based Phospholipids as Miltefosine Analogs with Superior Potency and Enhanced Selectivity Against Naegleria fowleri” (Pharmaceuticals, 2025):
Where two headings read alike, the source gives them in different places.

How the values were obtained:
[1] = system: N. fowleri trophozoites; assay: TUNEL assay (DNA fragmentation); type: cell-based, Naegleria fowleri; conditions: at IC90, 48 h; PI counterstain
Description: To further confirm the apoptotic mode of cell death induced by compounds 2a, 3b and 3d in N. fowleri, a TUNEL assay was conducted. This assay detects DNA fragmentation, a hallmark of apoptosis, by incorporating fluorescent dUTP at DNA break sites. […] This difference could reflect variations in the specific molecular pathways targeted by each compound or differences in their cellular uptake or metabolism.
Figure 6 TUNEL assay. DNA fragmentation implying apoptosis was detected by TUNEL (GFP channel, (Ex/Em = 490/525 nm) in the amoebae treated with tested compounds. These amoebae were also counterstained with PI (RFP channel, Ex/Em = 550/650 nm). Miltefosine (MF) was included as a positive reference control. NC, negative controls with 0.1% DMSO treatment. Images were representatives of the cell population in three individual experiments. Size bar: 10 µm.
N. fowleri trophozoites (2 × 10^6 cells/well) were seeded in a 6-well plate (Thermo Fisher Scientific), treated with compounds 2a, 3b or 3d (IC90) and incubated at 37 °C for 48 h. The TUNEL assay was performed by using TUNEL Fluorescein Isothiocyanate (FITC) Assay Kit (Abcam, Cambridge, UK) as described previously. N. fowleri trophozoites treated with 0.01% DMSO was used as an NC. The amoeba treated with miltefosine (IC90) were used as a positive control.

[2] = Cytotoxicity assay for C6 cells (CellTiter-Blue); type: cell-based; conditions: rat, C6 glial cells, viability, mean ± SD
Description: (§1) A viability assay was performed to evaluate the inhibitory activity of the tested compounds by determining their IC50 values against N. fowleri, using miltefosine as a reference drug. To assess the selectivity of the tested compounds relative to miltefosine, cytotoxic values that reduced the viability of C6 glial cells by 50% were established.
(§2) N. fowleri Carter NF69 strain (ATCC 30215; American Type Culture Collection, Manassas, VA, USA) was used. Amoeba trophozoites were cultured and maintained in Nelson’s medium containing 5% foetal bovine serum (FBS; Gibco, Grand Island, NY, USA) and 1% penicillin/streptomycin (P/S; Gibco, Grand Island, NY, USA) at 37 °C [56]. C6 rat glial cells (C6 cells; ATCC CCL-107) were cultured in Dulbecco’s Modified Eagle’s Medium (DMEM; Gibco, Grand Island, NY, USA) supplemented with 10% FBS (Gibco, Grand Island, NY, USA) and 1% P/S (Gibco, Grand Island, NY, USA) at 37 °C in a humidified incubator under 5% CO2 atmosphere.
The potential cytotoxicity of tested compounds and miltefosine in C6 cells was analysed. The cells were seeded in a 96-well microplate (Thermo Fisher Scientific; 2 × 10^4 cells/well), respectively, and incubated overnight until 80% confluent. Serially diluted tested compounds and miltefosine were treated to the cells as described above. Morphological changes of the cells were observed by microscopic examination. Cell viability was determined using the CellTiter-Blue® Cell viability assay (Promega, […], USA). The cytotoxic concentrations 50 (CC50) of tested compounds and miltefosine were calculated using GraphPad Prism 9.1.0 software (GraphPad Software, San Diego, CA, USA). The […] (SI) was determined by the ratio between CC50 and IC50. Cells treated with 0.1% DMSO, which was confirmed not to alter the morphology of the cells by microscopic examination, were used as controls with 100% cell viability.

[3] = system: N. fowleri trophozoites; assay: Apoptosis/necrosis fluorescence staining assay; type: cell-based, Naegleria fowleri; conditions: at IC90, 48 h; apopxin green, 7-AAD red, cytocalcein blue
Text: While apoptosis was previously believed to occur in multicellular metazoans, it was discovered that ancient forms of apoptotic-like cell death, which mimics some characteristics of apoptosis, can also trigger death in protozoa. In fact, apoptosis-like death is one of the programmed cell death molecular mechanisms in protozoa that also include necrosis. To further understand how compounds 2a, 3b and 3d trigger the death of N. fowleri in comparison to miltefosine, an evaluation of apoptosis and necrosis was conducted at IC90 of the tested compounds for 48 h. […] The diminished cytocalceine blue fluorescence, coupled with the surge in green fluorescence signifying apoptosis after treatment with the compounds (Figure 5), clearly indicates the reduction in viable cells and the initiation of programmed cell death. The absence of 7-AAD red fluorescence further reinforces the lack of detectable necrosis. This is a desirable trait for potential therapeutic agents, as necrosis, unlike apoptosis, can trigger inflammation due to the uncontrolled release of intracellular contents.
Figure 5 Apoptosis/necrosis assay. A fluorescence staining assay was performed using N. fowleri trophozoites treated with compounds 2a, 3b, 3d, and miltefosine (MF) as a reference; NC, negative controls with 0.1% DMSO treatment. Blue fluorescence representing living cells stained with cytocalcein (DAPI channel, Ex/Em = 405/450 nm). Green apopxin stains apoptotic cells to show green fluorescence (GFP channel, Ex/Em = 490/525 nm). 7-Amino Actinomycin D (7-AAD) stains late apoptotic cells and necrotic cells to show red fluorescence (RFP channel, Ex/Em = 550/650 nm). Images were representatives of cell populations in three individual experiments. Size bar: 10 µm.
Apoptosis/necrosis in treated N. fowleri trophozoites was assessed using the Apoptosis/Necrosis Detection Kit (Abcam, Cambridge, UK). N. fowleri trophozoites (5 × 10^4 cells/well) were seeded in a 96-well black/clear bottom plate (Thermo Fisher Scientific). Compounds 2a, 3b and 3d were treated to the cells at the concentrations of IC90 and incubated at 37 °C for 48 h. The apoptosis/necrosis assay was performed as described previously. Amoebae treated with 0.1% DMSO and miltefosine (IC90) were used as the negative controls (NC) and the positive controls, respectively.

[4] = system: N. fowleri trophozoites; assay: Anti-amoebic viability assay (CellTiter-Blue) with microscopic observation; type: cell-based, Naegleria fowleri; conditions: for Selectivity Index: CC50 of C6 glial cell divided by IC50 of inhibition of N. fowleri; for IC50 / IC90: 48 h, N. fowleri trophozoites, viability; for IC50: mean ± SD of three assays, read-out: IC50 of Inhibition of N. fowleri; for IC90: mean ± SD; for morphological changes of N. fowleri (microscopy): treated trophozoites versus 0.1% DMSO negative control; for Relative Potency to Miltefosine: IC50 of miltefosine divided by IC50 of compound, N. fowleri
Description: as §1, §2
N. fowleri trophozoites (5 × 10^4 cells/well) were seeded in a 96-well microplate (Thermo Fisher Scientific, Waltham, MA, USA) in Nelson’s medium and incubated at 37 °C overnight. N. fowleri trophozoites were treated with 2-fold serial dilutions of tested compounds (from 0 to 200 µM) or miltefosine (150 µM) and incubated at 37 °C for 48 h. The viability of the amoebae was determined using the CellTiter-Blue® Cell viability assay (Promega, Madison, WI, USA). Inhibitory concentration 50 (IC50) and IC90 were calculated by the nonlinear regression method using GraphPad Prism 9.1.0 software (GraphPad Software, San Diego, CA, USA). Amoebae treated with 0.1% DMSO were used as a control, representing 100% cell viability. Morphological changes of the amoebae were observed microscopically.

| Structure (SMILES) | DNA fragmentation (TUNEL green fluorescence) [1] | CC50 [2] [µM] | mode of cell death (apoptosis/necrosis staining) [3] | Selectivity Index [4] | IC50 ([4]; Naegleria fowleri) [µM] | IC90 ([4]; Naegleria fowleri) [µM] | morphological changes of N. fowleri (microscopy) [4] | Relative Potency to Miltefosine [4] [fold] | fold the potency of trans-configured behenyl derivative 2d ([4]; N. fowleri IC50 ratio versus compound 2d) [fold] | IC50 [4] [µM] |
| --- | --- | --- | --- | --- | --- | --- | --- | --- | --- | --- |
| CCCCCCCCCCCCCO[C@@H]1CCC[C@H]1COP(=O)([O-])OCC[N+](C)(C)C [Compound 2a] | intense green fluorescence, confirming DNA fragmentation | 316.6 ± 2.1 | apoptosis-like death, rather than necrosis | 7.53 | 42 ± 1.32 | 109 | dose-dependent morphological changes |  |  |  |
| CCCCCCCCCCCCCOC[C@@H]1CCC[C@H]1OP(=O)([O-])OCC[N+](C)(C)C [Compound 3b] | intense green fluorescence, confirming DNA fragmentation | 159.5 ± 0.87 | apoptosis-like death, rather than necrosis | 3.90 | 40.9 ± 1.9 | 104 | dose-dependent morphological changes |  |  |  |
| CCCCCCCCCCCCCCCCCCCCCCOC[C@@H]1CCC[C@H]1OP(=O)([O-])OCC[N+](C)(C)C [Compound 3d] | intense green fluorescence, confirming DNA fragmentation | 84.9 ± 1.29 | apoptosis-like death, rather than necrosis | 3.49 | 24.3 ± 1.1 | 187 | dose-dependent morphological changes | 6.03 | 2.29 |  |
| CCCCCCCCCCCCCCCCOP(=O)([O-])OCC[N+](C)(C)C [Miltefosine] | intense green fluorescence, confirming DNA fragmentation | 157.8 ± 1.49 | apoptosis-like death, rather than necrosis | ~1.08 | 146.44 ± 0.12 | > 200 |  | 1.00 |  | 146.53 ± 0.12 |
